Consider 24 compounds from patent US10266497B2 (ABIDE THERAPEUTICS, INC., priority 2017, dated 2019).

Experiment [1] deals with T1, MAGL (Homo sapiens, UniProt Q99685).
T1 sequence (Q99685 1-303): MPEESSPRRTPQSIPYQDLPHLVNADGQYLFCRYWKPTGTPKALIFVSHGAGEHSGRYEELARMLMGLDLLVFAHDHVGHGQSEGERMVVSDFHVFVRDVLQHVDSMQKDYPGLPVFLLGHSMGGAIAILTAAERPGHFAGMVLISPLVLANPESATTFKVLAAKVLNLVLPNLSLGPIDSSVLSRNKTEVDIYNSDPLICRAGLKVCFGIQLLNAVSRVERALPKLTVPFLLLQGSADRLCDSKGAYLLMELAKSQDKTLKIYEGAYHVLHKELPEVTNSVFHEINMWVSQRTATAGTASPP
The experiment can be described thus: In vitro competitive activity-based protein profiling, MAGL, human. Particulars: read-out: MAGL % inh. 1 μM (human).

Experiment [2] has as its target T2, MAGL (Mus musculus, UniProt O35678).
T2 sequence (O35678 1-303): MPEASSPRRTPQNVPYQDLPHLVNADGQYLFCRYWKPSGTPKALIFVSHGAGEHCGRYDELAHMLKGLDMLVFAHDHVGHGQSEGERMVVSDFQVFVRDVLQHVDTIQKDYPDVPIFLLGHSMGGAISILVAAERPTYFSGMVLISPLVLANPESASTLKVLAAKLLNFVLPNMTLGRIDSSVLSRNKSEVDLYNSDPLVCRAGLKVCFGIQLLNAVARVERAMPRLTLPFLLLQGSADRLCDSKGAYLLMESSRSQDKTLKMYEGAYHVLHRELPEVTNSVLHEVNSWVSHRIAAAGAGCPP
Nature of the experiment: In vitro competitive activity-based protein profiling, MAGL, mouse. Particulars: read-out: MAGL % inh. 1 μM (mouse).

With `O=C(O)c1nn(C(=O)N2CCN(Cc3cc(F)cc(Oc4ccc(Cl)cc4)c3)CC2)cc1Cl` [Example 378, 4-chloro-1-(4-(3-(4-chlorophenoxy)-5-fluorobenzyl)piper-azine-1-carbonyl)-1H-pyrazole-3-carboxylic acid], the inhibition at 1 µM in experiment [1] and in experiment [2] was greater than 75% throughout.
In the case of `CN(Cc1cccc(C(F)(F)F)c1)C1(C)CCN(C(=O)n2ccc(C(N)=O)n2)CC1` [Example 258, 1-(4-methyl-4-(methyl(3-(trifluoromethyl)benzyl)amino)piper-idine-1-carbonyl)-1H-pyrazole-3-carboxamide], the inhibition at 1 µM in experiment [1] and in experiment [2] was greater than 75% each time.
Regarding `NC(=O)c1ccn(C(=O)N2CCC3(CCN(Cc4cc5ccc(C(F)(F)F)cc5s4)C3)CC2)n1` [Example 377, 1-(2-((6-(trifluoromethyl)benzo[b]thiophen-2-yl)methyl)-2,8-diazaspiro[4.5]decane-8-carbonyl)-1H-pyrazole-3-carboxamide], the inhibition at 1 µM in experiment [1] and in experiment [2] was 0 to 25% in each case.
As for `C[C@@H]1CN(Cc2cccc(Oc3ccc(F)cn3)c2)CCN1C(=O)n1ccc(C(=O)O)n1` [Example 295, (R)-1-(4-(3-((5-fluoropyridin-2-yl)oxy)benzyl)-2-methylpiperazine-1-carbonyl)-1H-pyrazole-3-carboxylic acid], the inhibition at 1 µM in experiment [1] is 50 to 75%; in experiment [2] it was greater than 75%.
For `Cc1cn(C(=O)N2CCC3(CCN(Cc4cc(Cl)cc(Cl)c4)C3)CC2)nc1C(=O)O` [Example 316, 1-(2-(3,5-dichlorobenzyl)-2,8-diazaspiro[4.5]decane-8-carbonyl)-4-methyl-1H-pyrazole-3-carboxylic acid], the inhibition at 1 µM in experiment [1] and in experiment [2] was greater than 75% each time.
Regarding `O=C(O)c1ccn(C(=O)N2CCC3(CCN(Cc4cc(N5CCCC5)ccc4C(F)(F)F)C3)CC2)n1` [Example 391, 1-(2-(5-(pyrrolidin-1-yl)-2-(trifluoromethyl)benzyl)-2,8-diazaspiro[4.5]decane-8-carbonyl)-1H-pyrazole-3-carboxylic acid], the inhibition at 1 µM in experiment [1] and in experiment [2] was greater than 75% each time.
As for `O=C(O)c1nn(C(=O)N2CCN(Cc3cccc(Oc4cc(C(F)(F)F)ccn4)c3)CC2)cc1Cl` [Example 399, 4-chloro-1-(4-(3-((4-(trifluoromethyl)pyridin-2-yl)oxy)benzyl)piper-azine-1-carbonyl)-1H-pyrazole-3-carboxylic acid], the inhibition at 1 µM in experiment [1] and in experiment [2] was greater than 75% throughout.
On to `Cc1cn(C(=O)N2C[C@H]3C[C@H](OCc4cccc(C(F)(F)F)c4C)C[C@H]3C2)nc1C(=O)O` [Example 306, 4-methyl-1-(trans-5-((2-methyl-3-(trifluoromethyl)benzyl)oxy)octa-hydrocyclopenta[c]pyrrole-2-carbonyl)-1H-pyrazole-3-carboxylic acid], for which the inhibition at 1 µM in experiment [1] and in experiment [2] was greater than 75% each time.
As to `O=C(O)c1ccn(C(=O)N2CCC(OCc3cc(Cl)cc(Cl)c3)CC2)n1` [Example 224, 1-(4-((3,5-dichlorobenzyl)oxy)piperidine-1-carbonyl)-1H-pyrazole-3-carboxylic acid], the inhibition at 1 µM in experiment [1] and in experiment [2] was greater than 75% in each case.
In the case of `Cc1cn(C(=O)N2C[C@H]3C[C@H](OCc4cccc(C(F)(F)F)c4)C[C@H]3C2)nc1C(=O)O` [Example 290, 4-methyl-1-(trans-5-((3-(trifluoromethyl)benzyl)oxy)octa-hydrocyclopenta[c]pyrrole-2-carbonyl)-1H-pyrazole-3-carboxylic acid], the inhibition at 1 µM in experiment [1] and in experiment [2] was greater than 75% throughout.
In the case of `C[C@H]1CN(Cc2ccc(C(F)(F)F)cc2N2CCCC2)CCN1C(=O)n1ccc(C(N)=O)n1` [Example 326, (S)-1-(2-methyl-4-(2-(pyrrolidin-1-yl)-4-(trifluoromethyl)benzyl)piperazine-1-carbonyl)-1H-pyrazole-3-carboxamide], the inhibition at 1 µM in experiment [1] and in experiment [2] was greater than 75% each time.
`O=C(O)c1ccn(C(=O)N2CCN(Cc3ccc(C(F)(F)F)cc3N3CC[C@H](O)C3)CC2)n1` [Example 332, (S)-1-(4-(2-(3-hydroxypyrrolidin-1-yl)-4-(trifluoromethyl)benzyl)piperazine-1-carbonyl)-1H-pyrazole-3-carboxylic acid]: the inhibition at 1 µM in experiment [1] and in experiment [2] was greater than 75% in each case.
As to `O=C(O)c1ccn(C(=O)N2CCC3(CCCN3Cc3ccc(C(F)(F)F)cc3N3CCN4CCC[C@@H]4C3)CC2)n1` [Example 417, (R)-1-(1-(2-(hexahydropyrrolo[1,2-a]pyrazin-2(1H)-yl)-4-(trifluoromethyl)benzyl)-1,8-diazaspiro[4.5]decane-8-carbonyl)-1H-pyrazole-3-carboxylic acid], the inhibition at 1 µM in experiment [1] is 25 to 50%; in experiment [2], 0 to 25%.
Taken in the same sequence, the figures for `C[C@H]1CN(Cc2cccc(OCC(C)(C)O)c2Cl)CCN1C(=O)n1ccc(C(N)=O)n1` [Example 450, (S)-1-(4-(2-chloro-3-(2-hydroxy-2-methylpropoxy)benzyl)-2-methylpiperazine-1-carbonyl)-1H-pyrazole-3-carboxamide] were greater than 75% and greater than 75%.
For the compound `O=C(O)c1ccn(C(=O)N2CCN(Cc3ccc(F)c(Oc4ccccc4)c3)CC2)n1` [Example 263, 1-(4-(4-fluoro-3-phenoxybenzyl)pi-perazine-1-carbonyl)-1H-pyrazole-3-carboxylic acid], the inhibition at 1 µM in experiment [1] and in experiment [2] was greater than 75% in each case.
For the compound `O=C(O)c1ccn(C(=O)N2CCC3(CCN(Cc4cccc(-c5nccs5)c4)C3)CC2)n1` [Example 305, 1-(2-(3-(thiazol-2-yl)benzyl)-2,8-diazaspiro[4.5]decane-8-carbonyl)-1H-pyrazole-3-carboxylic acid], the inhibition at 1 µM in experiment [1] is 50 to 75%; in experiment [2], 0 to 25%.
Taken in the same sequence, the figures for `O=C(O)c1ccn(C(=O)N2CCC3(CCN(Cc4cccc(Cl)c4Cl)C3)CC2)n1` [Example 286, 1-(2-(2,3-dichlorobenzyl)-2,8-diazaspiro[4.5]decane-8-carbonyl)-1H-pyrazole-3-carboxylic acid] were greater than 75% and greater than 75%.
Turning to `O=C(O)c1ccn(C(=O)N2CCC3(CCN(Cc4cccc(C(F)(F)F)c4Cl)C3)CC2)n1` [Example 339, 1-(2-(2-chloro-3-(trifluoromethyl)benzyl)-2,8-diazaspiro[4.5]decane-8-carbonyl)-1H-pyrazole-3-carboxylic acid], the inhibition at 1 µM in experiment [1] and in experiment [2] was greater than 75% throughout.
In the case of `COc1ccc(Cl)cc1CN1CCC2(CCN(C(=O)n3ccc(C(=O)O)n3)CC2)C1` [Example 282, 1-(2-(5-chloro-2-methoxybenzyl)-2,8-diazaspiro[4.5]decane-8-carbonyl)-1H-pyrazole-3-carboxylic acid], the figures for the inhibition at 1 µM in experiment [1] and in experiment [2] were 50 to 75% and 0 to 25%, respectively.
Taken in the same sequence, the figures for `CN(Cc1cccc(-c2ccccc2)c1)[C@H]1C[C@@H]2CN(C(=O)n3ccc(C(=O)O)n3)C[C@@H]2C1` [Example 298, 1-(trans-5-(([1,1′-biphenyl]-3-ylmethyl)(methyl)amino)octahydrocyc-lopenta[c]pyrrole-2-carbonyl)-1H-pyrazole-3-carboxylic acid] were greater than 75% and greater than 75%.
Taken in the same sequence, the figures for `O=C(O)c1nn(C(=O)N2C[C@H]3C[C@H](OCc4cccc(C(F)(F)F)c4)C[C@H]3C2)cc1Cl` [Example 314, 4-chloro-1-(trans-5-((3-(trifluoromethyl)benzyl)oxy)octa-hydrocyclopenta[c]pyrrole-2-carbonyl)-1H-pyrazole-3-carboxylic acid] were greater than 75% and greater than 75%.
As to `O=C(O)c1ccn(C(=O)N2CCC(OCc3cc(Cl)cc(Oc4ccc(Cl)cc4)c3)CC2)n1` [Example 27, 1-(4-((3-Chloro-5-(4-chlorophenoxy)benzyl)oxy)piperidine-1-carbonyl)-1H-pyrazole-3-carboxylic Acid], the inhibition at 1 µM in experiment [1] and in experiment [2] was greater than 75% in each case.
`O=C(O)c1ccn(C(=O)N2CCC3(CCN(Cc4cc(Cl)ccc4C(F)(F)F)CC3)CC2)n1` [Example 217, 1-(9-(5-chloro-2-(trifluoromethyl)benzyl)-3,9-diazaspiro[5.5]undecane-3-carbonyl)-1H-pyrazole-3-carboxylic acid]: the inhibition at 1 µM in experiment [1] and in experiment [2] was greater than 75% throughout.
Regarding `O=C(O)c1ccn(C(=O)N2C[C@H]3C[C@H](OCc4ccc(Cl)c(-c5nccs5)c4)C[C@H]3C2)n1` [Example 345, 1-(trans-5-((4-chloro-3-(thiazol-2-yl)benzyl)oxy)octa-hydrocyclopenta[c]pyrrole-2-carbonyl)-1H-pyrazole-3-carboxylic acid], the inhibition at 1 µM in experiment [1] and in experiment [2] was greater than 75% each time.
